Read-outs that look alike come from different tables or passages of the source.
Experiments:
HDAC7 = target: T1, HDAC7 (Homo sapiens, UniProt Q8WUI4); experiment: HDAC biochemical activity measurement (fluorescent substrate deacetylation);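 as to all read-outs here: fluorogenic deacetylation assay using acetyl-lysine substrate at 20 µM, enzyme and compound incubated 30 min at 37 °C, then developer added, fluorescence read at 360/460 nm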; details: for IC50 HDAC7: 37° C. 30 minutes
T1 sequence (Q8WUI4 1-952): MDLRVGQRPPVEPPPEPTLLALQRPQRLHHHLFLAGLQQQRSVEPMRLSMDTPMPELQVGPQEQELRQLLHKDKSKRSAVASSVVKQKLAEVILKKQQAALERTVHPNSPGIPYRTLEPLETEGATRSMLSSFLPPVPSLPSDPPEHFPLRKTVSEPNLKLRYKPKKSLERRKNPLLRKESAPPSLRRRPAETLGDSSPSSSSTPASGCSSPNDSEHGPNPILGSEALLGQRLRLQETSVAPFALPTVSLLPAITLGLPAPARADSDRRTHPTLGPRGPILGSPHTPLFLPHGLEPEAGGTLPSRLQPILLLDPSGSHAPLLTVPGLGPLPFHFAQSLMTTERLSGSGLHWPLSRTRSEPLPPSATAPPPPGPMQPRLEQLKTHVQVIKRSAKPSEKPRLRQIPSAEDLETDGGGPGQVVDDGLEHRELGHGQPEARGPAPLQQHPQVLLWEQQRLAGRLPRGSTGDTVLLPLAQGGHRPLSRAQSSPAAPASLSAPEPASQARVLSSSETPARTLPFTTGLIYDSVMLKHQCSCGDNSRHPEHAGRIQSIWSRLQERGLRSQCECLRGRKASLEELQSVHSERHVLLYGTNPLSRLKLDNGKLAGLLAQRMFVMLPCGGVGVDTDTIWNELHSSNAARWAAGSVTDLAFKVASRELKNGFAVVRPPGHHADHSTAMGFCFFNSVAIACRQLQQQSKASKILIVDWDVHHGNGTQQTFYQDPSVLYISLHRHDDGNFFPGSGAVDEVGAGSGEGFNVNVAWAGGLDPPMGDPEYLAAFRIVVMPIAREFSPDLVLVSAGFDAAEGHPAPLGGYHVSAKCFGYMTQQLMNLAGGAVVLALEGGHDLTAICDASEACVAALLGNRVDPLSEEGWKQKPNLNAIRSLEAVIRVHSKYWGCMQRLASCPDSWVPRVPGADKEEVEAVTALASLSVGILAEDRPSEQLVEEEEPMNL

[1] = tested on: DU145 (human prostate cancer cells); experiment: MTT cancer cell growth inhibition; type: cell-based; details: Homo sapiens, DU-145, 72 h, MTT, 72 hours incubation, read-out: GI50 Du1
Description: (§1) MTT assay principle is yellow MTT can penetrate membrane into the cell, succinic dehydrogenase of the mitochondria in living cells can make exogenous MTT reduction of insoluble in water of blue-violet acicular formazan for crystallization and deposition in the cell, crystallization can be dissolved dimethyl sulfoxide (DMSO) solution, detected its absorbance at 490 nm/570 nm wavelength by enzyme-linked immunosorbent assay, which can reflect the number of cells.
(§2) Using DMEM+10% FBS culture medium or using 1640+10% FBS culture, respectively.
(§3) a) Cells were seeded in 96-well plates with the inoculation of 1500/well, 190 μl/hole, 37° C., 5% of CO2 incubator overnight;
(§4) b) The next day each well was added 10 μl of different drugs. The final concentration of drug was 10^−5˜10^−10M, three parallel holes; 37° C., 5% CO2 culture incubator for 72 hours incubation;
(§5) c) Per well was added 20 μl 5 mg/ml of MTT, 37° C., 5% CO2 culture incubator for 4 hours incubation;
(§6) d) The supernatant was discarded. Each well was added 100 μl of DMSO and oscillation;
(§7) e) 570 nm readings. Calculate cell viability. GI50 calculation based on the results.

[2] = tested on: U937 (human leukemia cells); experiment: MTT cancer cell growth inhibition; type: cell-based; details: Homo sapiens, U-937, 72 h, MTT, 72 hours incubation, read-out: GI50 U93
Description: as §1, §2, §3, §4, §5, §6, §7

[3] = tested on: lncap (prostate cancer cells); experiment: MTT cancer cell growth inhibition; type: cell-based; details: Homo sapiens, LNCaP, 72 h, MTT, 72 hours incubation, read-out: GI50 lnca
Description: as §1, §2, §3, §4, §5, §6, §7

[4] = tested on: Huh-7 (human hepatoma cells); experiment: MTT cancer cell growth inhibition; type: cell-based; details: Homo sapiens, Huh-7, 72 h, MTT, 72 hours incubation, Huh-7 cells; read-out: GI50 Huh-7
Description: as §1, §2, §3, §4, §5, §6, §7

[5] = tested on: BGC-823 (human gastric cancer cells); experiment: MTT cancer cell growth inhibition; type: cell-based; details: Homo sapiens, BGC-823, 72 h, MTT, 72 hours incubation, read-out: GI50 BG
Description: as §1, §2, §3, §4, §5, §6, §7

[6] = tested on: PANC-1 (Pac-1, human pancreatic cancer cells); experiment: MTT cancer cell growth inhibition; type: cell-based; details: Homo sapiens, PANC-1, 72 h, MTT, 72 hours incubation, read-out: GI50 PAN
Description: as §1, §2, §3, §4, §5, §6, §7

[7] = tested on: KBM-5 (human chronic myelogenous leukemia); experiment: MTT cancer cell growth inhibition; type: cell-based; details: Homo sapiens, KBM5, 72 h, MTT, 72 hours incubation, KBM-5 cells; read-out: GI50 KBM-5
Description: as §1, §2, §3, §4, §5, §6, §7

[8] = tested on: H1975 (non-small cell lung adenocarcinoma); experiment: MTT cancer cell growth inhibition; type: cell-based; details: Homo sapiens, NCI-H1975, 72 h, MTT, 72 hours incubation, H1975 cells; read-out: GI50 H1975
Description: as §1, §2, §3, §4, §5, §6, §7

[9] = tested on: K562 (human leukemia cells); experiment: MTT cancer cell growth inhibition; type: cell-based; details: Homo sapiens, K562, 72 h, MTT, 72 hours incubation, K562 cells; read-out: GI50 K562
Description: as §1, §2, §3, §4, §5, §6, §7

[10] = tested on: KBM5-T315I (human chronic myelogenous leukemia); experiment: MTT cancer cell growth inhibition; type: cell-based; details: Homo sapiens, 72 h, MTT, 72 hours incubation, KBM5-T315I cells; read-out: GI50 KBM5-T315I
Description: as §1, §2, §3, §4, §5, §6, §7

[11] = tested on: N-87 (human gastric cancer cells); experiment: MTT cancer cell growth inhibition; type: cell-based; details: Homo sapiens, 72 h, MTT, 72 hours incubation, N-87 cells; read-out: GI50 N-87
Description: as §1, §2, §3, §4, §5, §6, §7

[12] = tested on: SGC-7901 (human gastric cancer cells); experiment: MTT cancer cell growth inhibition; type: cell-based; details: Homo sapiens, SGC-7901, 72 h, MTT, 72 hours incubation, SGC-7901 cells; read-out: GI50 SGC-7901
Description: as §1, §2, §3, §4, §5, §6, §7

[13] = tested on: A549 (human lung cancer cells); experiment: MTT cancer cell growth inhibition; type: cell-based; details: Homo sapiens, A549, 72 h, MTT, 72 hours incubation, read-out: GI50 A54
Description: as §1, §2, §3, §4, §5, §6, §7

[14] = tested on: HCC827 (human non-small cell lung cancer cells); experiment: MTT cancer cell growth inhibition; type: cell-based; details: Homo sapiens, HCC827, 72 h, MTT, 72 hours incubation, HCC827 cells; read-out: GI50 HCC827
Description: as §1, §2, §3, §4, §5, §6, §7

[15] = tested on: Bel-7402 (human hepatoma cells); experiment: MTT cancer cell growth inhibition; type: cell-based; details: Homo sapiens, Bel-7402, 72 h, MTT, 72 hours incubation, Bel-7402 cells; read-out: GI50 Bel-7402
Description: as §1, §2, §3, §4, §5, §6, §7

[16] = tested on: MCF-7 (human breast cancer cells); experiment: MTT cancer cell growth inhibition; type: cell-based; details: Homo sapiens, MCF7, 72 h, 72 hours incubation, read-out: GI50 MCF
Description: as §1, §2, §3, §4, §5, §6, §7

[17] = tested on: MOLT-4 (human acute lymphoblastic leukemia cells); experiment: MTT cancer cell growth inhibition; type: cell-based; details: Homo sapiens, MOLT-4, 72 h, MTT, 72 hours incubation, read-out: GI50 Mol
Description: as §1, §2, §3, §4, §5, §6, §7

[18] = tested on: Hela (human cervical cancer cells); experiment: MTT cancer cell growth inhibition; type: cell-based; details: Homo sapiens, HeLa, 72 h, MTT, 72 hours incubation, read-out: GI50 Hela
Description: as §1, §2, §3, §4, §5, §6, §7

[19] = tested on: HT1080 (human fibrosarcoma cells); experiment: MTT cancer cell growth inhibition; type: cell-based; details: Homo sapiens, HT-1080, 72 h, MTT, 72 hours incubation, read-out: GI50 HT1
Description: as §1, §2, §3, §4, §5, §6, §7

[20] = tested on: MDA-MB-231 (breast cancer cells); experiment: MTT cancer cell growth inhibition; type: cell-based; details: Homo sapiens, MDA-MB-231, 72 h, read-out: GI50 MDA-MB-231, MTT, 72 hours incubation, MDA-MB-231 cells
Description: as §1, §2, §3, §4, §5, §6, §7

SMILES | IC50 HDAC7 (HDAC7) | GI50 ([1]; DU145 cells) | GI50 ([2]; U937 cells) | GI50 ([3]; lncap cells) | GI50 [4] | GI50 ([5]; BGC-823 cells) | GI50 ([6]; PANC-1 cells) | GI50 [7] | GI50 [8] | GI50 [9] | GI50 [10] | GI50 [11] | GI50 [12] | GI50 ([13]; A549 cells) | GI50 [14] | GI50 [15] | GI50 ([16]; MCF-7 cells) | GI50 ([17]; MOLT-4 cells) | GI50 ([18]; Hela cells) | GI50 [20] | further results
C/C=C1\NC(=O)c2cc(SC)cc(n2)CNC(=O)C[C@@H](/C=C/CCSC(=O)CCCCC)OC(=O)[C@H](C(C)C)NC1=O [Compound 154] | no activity | 50 nM | 40 nM | 40 nM | 47 nM | 40 nM | 40 nM | 29 nM | 38 nM | 28 nM | 71 nM | 63 nM | 12 nM | 40 nM | 75 nM | 53 nM | 50 nM | 90 nM | 40 nM | 53 nM | GI50 ([19]; HT1080 cells): 90 nM
C/C=C1\NC(=O)c2ccc(SC)c(n2)CNC(=O)C[C@@H](/C=C/CCS)OC(=O)[C@H](C)NC1=O [Compound 234] | no activity | 50 nM | 20 nM | 20 nM | 42 nM | 80 nM | 30 nM | 12 nM | 52 nM | 38 nM | 32 nM | 23 nM | 39 nM | 20 nM | 16 nM | 82 nM | 30 nM | 30 nM | 60 nM | 39 nM | GI50 ([19]; HT1080 cells): 10 nM
C/C=C1\NC(=O)c2cccc(n2)CNC(=O)C[C@@H](/C=C/CCS)OC(=O)[C@H](Cc2ccc(O)cc2)NC1=O [Compound 127] | no activity | – | – | – | 71 nM | – | – | 53 nM | 36 nM | 28 nM | 28 nM | 46 nM | 36 nM | – | 38 nM | 37 nM | – | – | – | 37 nM | GI50 [1]: 70 nM; GI50 [2]: 50 nM; GI50 [3]: 80 nM; GI50 [5]: 50 nM; GI50 [6]: 50 nM; GI50 [13]: 50 nM; GI50 [16]: 70 nM; GI50 [17]: 80 nM; GI50 [18]: 80 nM; GI50 [19]: 80 nM

More lines, main results first:

IC50 HDAC7 (HDAC7) | GI50 ([1]; DU145 cells) | GI50 ([2]; U937 cells) | GI50 ([3]; lncap cells) | GI50 [4] | GI50 ([5]; BGC-823 cells) | GI50 ([6]; PANC-1 cells) | GI50 [7] | GI50 [8] | GI50 [9] | GI50 [10] | GI50 [11] | GI50 [12] | GI50 ([13]; A549 cells) | GI50 [14] | GI50 [15] | GI50 ([16]; MCF-7 cells) | GI50 ([17]; MOLT-4 cells) | GI50 ([18]; Hela cells) | GI50 [20] | SMILES | further results
no activity | 30 nM | 40 nM | 60 nM | 79 nM | 30 nM | 50 nM | 18 nM | 53 nM | 36 nM | 36 nM | 28 nM | 71 nM | 20 nM | 29 nM | 42 nM | 30 nM | 30 nM | 50 nM | 23 nM | C/C=C1\NC(=O)c2ccc(SC)c(n2)CNC(=O)C[C@@H](/C=C/CCSC(C)=O)OC(=O)[C@H](Cc2ccccc2)NC1=O [Compound 188] | GI50 ([19]; HT1080 cells): 80 nM
no activity | 30 nM | 60 nM | 80 nM | 57 nM | 60 nM | 50 nM | 69 nM | 62 nM | 35 nM | 37 nM | 35 nM | 84 nM | 40 nM | 48 nM | 39 nM | 70 nM | 70 nM | 20 nM | 97 nM | C=C1NC(=O)c2ccc(SC)c(n2)CNC(=O)C[C@@H](/C=C/CCSC(C)=O)OC(=O)[C@H](C)NC1=O [Compound 212] | GI50 ([19]; HT1080 cells): 30 nM
– | 40 nM | 20 nM | 50 nM | 45 nM | 30 nM | 40 nM | 32 nM | 68 nM | 56 nM | 37 nM | 51 nM | 48 nM | 30 nM | 57 nM | 35 nM | 80 nM | 50 nM | 10 nM | 23 nM | C/C=C1\NC(=O)c2ccc(SCC)c(n2)CNC(=O)C[C@@H](/C=C/CCSC(=O)CCCCC)OC(=O)[C@H](C(C)C)NC1=O [Compound 255] | IC50 (μM) HDAC7 (HDAC7): no activity; GI50 ([19]; HT1080 cells): 60 nM

Source: patent US10065990B2, “Cyclic peptide compound, and preparation method, pharmaceutical composition and use thereof” (HANGZHOU GUANYU BIO-MEDICAL CO., LTD, priority 2013, dated 2018)
